Data as given in patent publication US9079913B2, “Spiro-oxindole MDM2 antagonists” (The Regents of the University of Michigan, priority 2009, dated 2015).
Read-outs that look alike come from different tables or passages of the source. Each block holds one compound with its values, some of them ahead of it.

Columns and labels:
[1] = molecular target: recombinant human His-tagged MDM2 protein (residues 1-118) (Homo sapiens (Human), UniProt Q00987); experiment: Fluorescence-polarization MDM2 binding assay;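 note: fluorescence polarization read after three hours of incubation in potassium phosphate buffer containing bovine gamma globulin and Triton X-100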
Chain of recombinant human His-tagged MDM2 protein (residues 1-118) (Q00987 1-118): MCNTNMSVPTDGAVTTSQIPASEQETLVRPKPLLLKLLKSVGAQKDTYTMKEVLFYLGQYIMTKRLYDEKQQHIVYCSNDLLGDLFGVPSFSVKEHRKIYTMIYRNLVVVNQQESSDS

[2] = test system: Isogenic HCT-116 colon cancer cell lines; experiment: cells; type: cell-based;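 note: cells grown in 96-well plates in McCoy's 5A medium with 10% FBS, exposed to compound for 4 days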
Method: Cells were seeded in 96-well flat bottom cell culture plates at a density of 2−3×10^3 cells/well with compounds and incubated for 4 days.

[3] = test system: cancer cell lines with wild-type p53 / mutated or deleted p53 (ATCC); experiment: Cell growth assay (WST-8), other cancer cell lines; type: cell-based
[4] = Table 19A, FP binding assay, read-out: MDM2 IC50
[5] = Homo sapiens, HCT-116, read-out: HCT-116 (p53-/-) IC50, Table 19A, HCT-116 p53-/-, cell growth
[6] = Homo sapiens, HCT-116, read-out: HCT-116 (p53 wild-type) IC50, Table 19A, HCT-116 p53 wild-type, cell growth
[7] = Homo sapiens, PC-3, Table 19A, PC-3 cells, deleted p53, cell growth, read-out: PC-3 (deleted p53) IC50
[8] = Homo sapiens, SJSA-1, Table 19A, SJSA-1 cells, p53 wild-type, cell growth, read-out: SJSA-1 (p53 wild-type) IC50
[9] = Table 19C, read-out: Bidning affinities to MDM2 as determined using FP assay IC50
[10] = Homo sapiens, HCT-116, read-out: Cell growth inhibition using WST assay, HCT116 p53KO IC50, Table 19C, HCT116 p53KO
[11] = Homo sapiens, HCT-116, read-out: Cell growth inhibition using WST assay, HCT116 p53WT IC50, Table 19C, HCT116 p53WT
[12] = Homo sapiens, LNCaP, Table 19C, LNCaP cells, read-out: Cell growth inhibition using WST assay, LNCaP IC50
[13] = Homo sapiens, PC-3, Table 19C, PC3 cells, read-out: Cell growth inhibition using WST assay, PC3 IC50
[14] = Table 19B, read-out: Binding affinities to MDM2 protein as determined by FP based assay IC50
[15] = Homo sapiens, HCT-116, read-out: Inhibition of cell growth IC50, HCT116 p53 KO, Table 19B, HCT116 p53 KO
[16] = Homo sapiens, HCT-116, read-out: Inhibition of cell growth IC50, HCT116 p53 WT, Table 19B, HCT116 p53 WT
[17] = Homo sapiens, LNCaP, Table 19B, LNCaP cells, read-out: Inhibition of cell growth IC50, LNCaP
[18] = Homo sapiens, PC-3, Table 19B, PC3 cells, read-out: Inhibition of cell growth IC50, PC3

Structure (SMILES): CC(C)[C@@H](N)C(=O)OC1CCC(NC(=O)[C@@H]2N[C@H](CC(C)(C)C)[C@]3(C(=O)Nc4cc(Cl)ccc43)[C@H]2c2cccc(Cl)c2F)CC1 (stereo partly drawn) [MI-905]
IC50 [1, 4]: < 1000 nM | IC50 [2, 5]: 8000 nM | IC50 [2, 6]: < 3000 nM | IC50 ([3]; Homo sapiens, LNCaP, Table 19A, LNCAP cells, p53 wild-type, cell growth, read-out: LNCAP (p53 wild-type) IC50): < 3000 nM | IC50 [3, 7]: 3900 nM | IC50 [3, 8]: < 3000 nM

Structure (SMILES): O=C(NCC[C@H](O)CO)[C@H]1[C@H](c2cccc(Cl)c2)[C@@]2(C(=O)Nc3cc(Cl)c(F)cc32)[C@H]2CC3(CCCC3)CCN12 [MI-319-38]
IC50 [1, 9]: > 3000 nM | IC50 [2, 10]: > 10000 nM | IC50 [2, 11]: > 10000 nM | IC50 [3, 12]: > 5000 nM | IC50 [3, 13]: > 10000 nM

IC50 [1, 4]: < 3000 nM | IC50 [3, 7]: > 10000 nM
Structure (SMILES): CC(C)(C)C[C@H]1N[C@@H](C(=O)N[C@H]2C[C@@](C)(O)C2)[C@H](c2cccc(Cl)c2)[C@@]12C(=O)Nc1cc(F)c(F)cc12 [C035]

Structure (SMILES): CC(C)(C)C[C@H]1N[C@@H](C(=O)NCCN2CCN(C(=O)CO)CC2)[C@H](c2cccc(Cl)c2)[C@@]12C(=O)Nc1cc(Cl)c(F)cc12 [MI-319-33]
IC50 [1, 9]: < 1000 nM | IC50 [2, 10]: 25300 ± 2800 nM | IC50 [2, 11]: 2100 ± 200 nM | IC50 [3, 12]: 1400 ± 200 nM | IC50 [3, 13]: 23600 ± 5500 nM

Structure (SMILES): O=C(NCC[C@H](O)CO)[C@@H]1N[C@H](CC2(CCO)CCCC2)[C@]2(C(=O)Nc3cc(Cl)c(F)cc32)[C@H]1c1cccc(Cl)c1 [MI-319-37]
IC50 [1, 9]: < 1000 nM | IC50 [2, 10]: > 30000 nM | IC50 [2, 11]: < 10000 nM | IC50 [3, 12]: < 5000 nM | IC50 [3, 13]: > 30000 nM

Structure (SMILES): CC(C)(C)C[C@H]1N[C@@H](C(=O)NCC[C@H](O)CO)[C@H](c2ccc(F)c(Cl)c2)[C@@]12C(=O)Nc1cc(F)c(F)cc12 [MI-519-8]
IC50 ([1]; Table 19D, read-out: MDM2 Binding Affinities IC50): < 3000 nM | IC50 ([2]; Homo sapiens, HCT-116, read-out: HCT116p53KO IC50, Table 19D, HCT116 p53KO): > 10000 nM | IC50 ([2]; Homo sapiens, HCT-116, read-out: HCT116p53WT IC50, Table 19D, HCT116 p53WT): < 5000 nM | IC50 ([3]; Homo sapiens, LNCaP, Table 19D, LNCaP cells, read-out: LNCaP IC50): < 5000 nM | IC50 ([3]; Homo sapiens, PC-3, Table 19D, PC3 cells, read-out: PC3 IC50): > 10000 nM

Structure (SMILES): O=C(NCC[C@H](O)CO)[C@@H]1N[C@H](CCC2CCCC2)[C@]2(C(=O)Nc3cc(Cl)c(F)cc32)[C@H]1c1cccc(Cl)c1 [MI-712]
IC50 [1, 14]: < 3000 nM | IC50 [2, 15]: 9100 ± 1000 nM | IC50 [2, 16]: 1800 ± 400 nM | IC50 [3, 17]: 1000 nM | IC50 [3, 18]: 7900 ± 200 nM

Structure (SMILES): O=C(NCC[C@H](O)CO)[C@@H]1N[C@H](CCc2ccsc2)[C@]2(C(=O)Nc3cc(Cl)c(F)cc32)[C@H]1c1cccc(Cl)c1 [MI-707]
IC50 [1, 14]: < 5000 nM | IC50 [2, 15]: 1300 ± 200 nM | IC50 [2, 16]: 600 ± 100 nM | IC50 [3, 17]: 300 nM | IC50 [3, 18]: 4600 ± 2900 nM

Structure (SMILES): CC(C)(C)C[C@H]1N[C@@H](C(=O)NCCN2CCOCC2)[C@H](c2cccc(Cl)c2F)[C@@]12C(=O)Nc1cc(F)c(F)cc12 [MI-721]
IC50 [1, 14]: < 3000 nM | IC50 [2, 15]: 18400 ± 5400 nM | IC50 [2, 16]: 1500 ± 300 nM | IC50 [3, 17]: 1400 nM | IC50 [3, 18]: 15200 ± 1400 nM

Structure (SMILES): O=C(NCC[C@H](O)CO)[C@@H]1N[C@H](CC2CCCCC2)[C@]2(C(=O)Nc3cc(Cl)c(F)cc32)[C@H]1c1cccc(Cl)c1 [MI-716C]
IC50 [1, 14]: < 1000 nM | IC50 ([2]; read-out: Inhibition of cell growth IC50, HCT116 p53 KO, Table 19B, HCT116 p53 KO): 12000 ± 3400 nM | IC50 ([2]; read-out: Inhibition of cell growth IC50, HCT116 p53 WT, Table 19B, HCT116 p53 WT): 700 ± 200 nM | IC50 ([3]; Table 19B, LNCaP cells, read-out: Inhibition of cell growth IC50, LNCaP): 800 ± 100 nM | IC50 ([3]; Table 19B, PC3 cells, read-out: Inhibition of cell growth IC50, PC3): 8000 ± 2000 nM

Structure (SMILES): O=C(NCC[C@H](O)CO)[C@@H]1N[C@H](CCc2cccs2)[C@]2(C(=O)Nc3cc(Cl)c(F)cc32)[C@H]1c1cccc(Cl)c1 [MI-703]
IC50 [1, 14]: > 1000 nM | IC50 [2, 15]: 4300 ± 1600 nM | IC50 [2, 16]: 1000 ± 200 nM | IC50 [3, 17]: 200 nM | IC50 [3, 18]: 3900 ± 500 nM

Structure (SMILES): CC(C)(C)C[C@H]1N[C@@H](C(=O)NC2CCNCC2)[C@H](c2cccc(Cl)c2F)[C@@]12C(=O)Nc1cc(Cl)ccc12 [MI-782]
IC50 [1, 4]: < 1000 nM | IC50 [2, 5]: 4700 nM | IC50 [2, 6]: 700 nM | IC50 [3, 8]: 1200 nM
